Laboratory results taken from ChEMBL document CHEMBL1144589, “Pharmacophoric features of Pseudomonas aeruginosa deacetylase LpxC inhibitors: an electronic and structural analysis” (Bioorg Med Chem Lett, 2007).
Active and inactive are the calls of the source. The calls are words filed in the database; no cut-off is given here.

Molecular target: T1, UDP-3-O-acyl-N-acetylglucosamine deacetylase (Pseudomonas aeruginosa (strain ATCC 15692 / PAO1 / 1C / PRS 101 / LMG12228)) (UniProt P47205)
T1 sequence (whole entry): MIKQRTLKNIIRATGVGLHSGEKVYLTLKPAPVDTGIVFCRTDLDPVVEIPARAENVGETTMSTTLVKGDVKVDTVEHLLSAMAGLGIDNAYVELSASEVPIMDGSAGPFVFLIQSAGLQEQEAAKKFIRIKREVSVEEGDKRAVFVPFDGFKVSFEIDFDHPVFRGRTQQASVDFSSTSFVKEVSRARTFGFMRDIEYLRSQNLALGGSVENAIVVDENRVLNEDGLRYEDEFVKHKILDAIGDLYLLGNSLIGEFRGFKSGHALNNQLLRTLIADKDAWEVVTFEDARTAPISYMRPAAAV
Assay: Inhibition at Pseudomonas aeruginosa deacetylase LpxC receptor

Question: `O=C(NO)C1COC(c2cccc(C(F)(F)F)c2)=N1` (stereo unspecified) was tested. Which Activity did it give?
Answer: The Activity was “Active”.
